“Also recorded” adds a separate entry of the source.

Test [1] relates to ETRB. The experiment in a line: Western blot of ETRB protein after BQ788. The class given is cell-based, human. To be noted: SK-MEL-28 cells; 3, 5 and 7 days with BQ788. The text has this: Real-time RT-PCR detection of ETRB transcripts (see legends FIG. 2) (A). ETRB protein expression compared to tubulin in SK-MEL-28 cells after 3, 5 and 7 days with (+) or without (−) BQ788 (B).
Samples were subjected to SDS-PAGE according to the method as described (Laemmli, Cleavage of structural proteins during the assembly of the head of bacteriophage T4, Nature, 227:680-685 (1970)). Proteins were blotted onto PVDF (Millipore) membranes and the filters were blocked with 5% non-fat dry milk. Immunostaining was preformed with anti-human endothelin receptor B antibody (Assay Designs, Inc.) (4 μg/ml) or anti-human Tubulin (Oncogene Research Products) (1 μg/ml) followed by incubation with a peroxidase conjugated goat anti rabbit secondary antibody (Sigma) (1:5000). Bands of 51 kd and 60 kd for ETRB (Hiraki, et al, Regular immunohistochemical localization of endothelin-1 and endothelin receptor B in normal, hyperplastic and neoplastic human adrenocortical cells, Pathol. Int., 47:117-125 (1997)) and tubulin respectively were detected using a chemiluminescent substrate kit (Interchim) according to the manufacturer's recommendations.
On the technique in general: Immunoblotting shows a protein as a band on a membrane.

Test [2] relates to tumors derived from a human melanoma cell line grown in nude mice. In words: Anti-CD31 immunohistochemistry of tumor sections (angiogenesis). Type of test: in vivo. To be noted: tumors injected with BQ788 vs vehicle. How it is done: Equal amounts of RNA from cells that were treated with BQ788 for 3 days were subjected to real-time RT-PCR analysis for the detection VEGF (A), HIF-1α (B) and Gravin (C) transcripts. Differences in expression levels are shown as x fold change and are statistically significant (p<0.05) unless a column in marked as non significant (N.S.). Sections of two representative tumors derived from a human melanoma cell line grown in nude mice and injected either with vehicle (D) or BQ788 (E) were stained with anti CD-31 to highlight blood vessels (brown staining, Lahav et al, 1999).
The relationship between the expression patterns of VEGF and GRAVIN is consistent with that observed in astrocytes, where GRAVIN down-regulates VEGF expression (Lee, et al., SSeCKS regulates angiogenesis and tight junction formation in blood-brain barrier, Nat. Med., 9:900-906 (2003)). In the present study we observed, at least for the most sensitive cell lines, LN-met and SK-MEL-28, that down-regulation of GRAVIN correlates with induction of VEGF. We therefore analyzed tissue sections of tumors derived from a human melanoma cell line grown in nude mice and injected with BQ788 for signs of changes in angiogenesis (Lahav, et al., An endothelin receptor B antagonist inhibits growth and induces cell death in human melanoma cells in vitro and in vivo, Proc. Natl. Acad. Sci. U.S.A., 96:11496-11500 (1999)).

The test system of test [3] is SK-MEL-28 and LN-met cell lines. The experiment in a line: cDNA microarray analysis of differentially regulated genes. The class given is cell-based, human. The note with it: SK-MEL-28 and LN-met after 2 days BQ788, confirmed by real-time RT-PCR. How it is done: Cells were cultured in the presence of BQ788 or its solvent (HCO60) for 2 days and then lysed and subjected to RNA extraction using SV Total RNA isolation kit (Promega). Two rounds of RNA amplification were conducted using RiboAmp™ RNA Amplification kit (Arcturus). Labeled cDNA was obtained by reverse transcription of 6 μl amplified RNA and incorporation of Cy3-dCTP (5-Amino-propargyl-2′-dexoycytidine 5′-triphosphate coupled to Cy3 fluorescent dye) and Cy5-dCTP (5-Amino-propargyl-2′-dexoycytidine 5′-triphosphate coupled to Cy5 fluorescent dye) (Amersham Biosciences). Human 10k arrays containing PCR products spotted onto glass slides were obtained from the Lausanne DNA Array Facility (DAF). Hybridization of labeled cDNA to microarrays was preformed for 16 h at 64° C. in a humidified chamber (Corning Costar). Scanning was done in a Scanarray 4000 scanner (Perkin Elmer). Image analysis was preformed using the ScanAlyse program (version 2.5). Data analysis was done using the R package: Statistics for Microarray analysis containing com.braju.sma package (www.r-project.org).
To explore the possible mechanisms that underlie the loss of viability of metastatic but not primary melanoma cells in response to ETRB antagonism, changes in gene expression profiles of BQ788-treated and untreated cells were investigated by cDNA microarray analysis. […]
A general note: Real-time PCR tracks product formation cycle by cycle.

Consider `CCCC[C@@H](NC(=O)[C@@H](Cc1cn(C(=O)OC)c2ccccc12)NC(=O)[C@H](CC(C)(C)C)NC(=O)N1[C@H](C)CCC[C@@H]1C)C(=O)O` [BQ788, N-cis-2,6-dimethylpiperidinocarbonyl-L-γ-methylleucyl-D-1-methoxycarbonyltrptophanyl-D-norleucine], for which the ETRB protein levels entry in test [1] is reported as “reduced”. For the same compound, the “angiogenesis in tumors (anti-CD31 staining)” value in test [2] is given as “clear increase in angiogenesis”. In test [3], the Down regulated gene result is “BCL2-A1; also recorded: PARP-3; also recorded: Gravin; also recorded: EDNRB”; the Up regulated gene result was “VEGF and HIF-1α”.
